Experimental data from paper PMC5369532, “NMR-filtered virtual screening leads to non-metal chelating metallo-β-lactamase inhibitors” (Chemical Science, 2016).

Tests used:
NDM-1 = molecular target: T1, NDM-1 (Klebsiella pneumoniae, UniProt C7C422); test: NDM-1 inhibition, selectivity profile (FC5 substrate); assay type: biochemical; details: Fig. 4
T1 construct: made in house; host or cells: Escherichia coli
Method: (§1) Except where noted, recombinant forms of NDM-1, VIM-2, SPM-1, IMP-1, and BcII MBLs were produced in Escherichia coli and assays were carried out as described previously10. The IC50 values of all the compounds for VIM-2 were determined using […]
(§2) the FC-5 based assay10. […]
(§3) concentrations (0 μM, 1 μM, and 100 μM, see Fig. S8). The selectivity profiles of compounds of interest against other B1 MBLs including VIM-511, VIM-110, NDM-1, SPM-1, and BcII, and TEM-112 (class A SBL) were determined using the same method as described above. The inhibitory activities of these compounds against CphA (B2 […]
(§4) Enzymea Categorya [E]b, (nM) Substrate [Substrate], (μM) […]
(§5) CphA Class B2 MBL 2.5 Meropenem 125 […]
(§6) TEM-1 Class A SBL 2.5 FC5 5 a MBL: Metallo β-lactamase; SBL: serine β-lactamase; VIM, Verona Integron–encoded MBL; IMP, Imipenemase; NDM, New Delhi MBL; TEM-1: Temomeira-type 1 […]
(§7) b The enzyme concentrations of the purified proteins were determined by measuring Abs@280nm using a NanoDrop (ThermoFisher) spectrometer and calculated molar extinction coefficient for each sample; concentrations of diluted solutions used in the assay were calculated from the original concentration. […]
(§8) negative controls. These were tested in same assay conditions but at 2mM instead of 100uM compound concentration.

SPM-1 = SPM-1 (Pseudomonas aeruginosa, UniProt Q8G9Q0); test: SPM-1 inhibition, selectivity profile (FC5 substrate); assay type: biochemical; details: Fig. 4
Chain of SPM-1 (Q8G9Q0 entry or part of it): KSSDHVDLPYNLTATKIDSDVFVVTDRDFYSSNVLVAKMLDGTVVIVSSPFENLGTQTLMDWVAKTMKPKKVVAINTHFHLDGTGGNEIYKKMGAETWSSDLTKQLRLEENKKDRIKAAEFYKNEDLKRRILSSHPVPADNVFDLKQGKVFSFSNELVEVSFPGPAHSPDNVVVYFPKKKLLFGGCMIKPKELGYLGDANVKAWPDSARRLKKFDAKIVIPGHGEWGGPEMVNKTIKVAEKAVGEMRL
Method: as §1, §2, §3, §4, §5, §6, §7, §8

BcII = molecular target: T2, BcII (Bacillus cereus, UniProt P04190); test: BcII inhibition, selectivity profile (FC5 substrate); assay type: biochemical; details: Fig. 4
T2 construct: made in house; host or cells: Escherichia coli
T2 sequence (P04190 31-257): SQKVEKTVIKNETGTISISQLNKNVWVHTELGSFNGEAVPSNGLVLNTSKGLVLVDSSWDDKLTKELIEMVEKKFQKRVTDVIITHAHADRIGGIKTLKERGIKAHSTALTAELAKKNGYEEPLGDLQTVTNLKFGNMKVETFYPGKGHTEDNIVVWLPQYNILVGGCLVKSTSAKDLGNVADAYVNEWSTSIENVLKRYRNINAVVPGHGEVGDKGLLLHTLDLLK
Method: as §1, §2, §3, §4, §5, §6, §7, §8

CphA = CphA (Aeromonas hydrophila, UniProt P26918); test: biochemical
Chain of CphA (P26918 28-254): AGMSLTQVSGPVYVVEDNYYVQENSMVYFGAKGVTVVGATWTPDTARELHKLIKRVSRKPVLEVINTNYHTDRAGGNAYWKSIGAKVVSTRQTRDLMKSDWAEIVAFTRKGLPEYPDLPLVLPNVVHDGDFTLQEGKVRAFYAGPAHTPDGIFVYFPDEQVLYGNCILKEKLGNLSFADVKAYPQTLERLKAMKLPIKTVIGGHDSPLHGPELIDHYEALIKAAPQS
Method: as §1
(§9) concentrations (0 μM, 1 μM, and 100 μM, see Fig. S8). The selectivity profiles of […]
(§10) as described above. The inhibitory activities of these compounds against CphA (B2 MBL)13 and L1 (B3 MBL)14 were determined using meropenem and nitrocefin, […]
(§11) at 100 μM. […]
(§12) MBL; IMP, Imipenemase; NDM, New Delhi MBL; TEM-1: Temomeira-type 1 […]
as §7
(§13) negative controls. These were tested in same assay conditions but at 2mM instead of 100uM compound concentration. […]

L1 = L1 (Stenotrophomonas maltophilia, UniProt P52700); test: biochemical
Chain of L1 (P52700 34-290): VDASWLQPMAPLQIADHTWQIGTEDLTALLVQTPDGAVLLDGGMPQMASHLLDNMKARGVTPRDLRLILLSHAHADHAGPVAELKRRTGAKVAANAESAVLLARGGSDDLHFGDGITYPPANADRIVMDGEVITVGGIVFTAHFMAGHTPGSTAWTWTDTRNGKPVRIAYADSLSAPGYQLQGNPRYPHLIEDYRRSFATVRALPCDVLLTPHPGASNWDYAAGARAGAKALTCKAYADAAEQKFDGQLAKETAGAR
Method: as §1, §9, §10, §11, §12, §7, §13

TEM-1 = TEM-1 (Escherichia coli, UniProt P62593); test: TEM-1 inhibition, selectivity profile (FC5 substrate); assay type: biochemical; details: Fig. 4
Chain of TEM-1 (P62593 24-286 limits assumed): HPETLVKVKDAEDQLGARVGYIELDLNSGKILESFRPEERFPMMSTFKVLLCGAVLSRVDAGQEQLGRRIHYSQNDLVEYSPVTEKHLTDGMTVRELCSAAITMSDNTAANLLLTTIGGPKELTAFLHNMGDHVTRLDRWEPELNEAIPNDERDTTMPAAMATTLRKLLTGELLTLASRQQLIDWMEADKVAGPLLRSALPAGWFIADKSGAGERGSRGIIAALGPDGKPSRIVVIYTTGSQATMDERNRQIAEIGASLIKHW

VIM-2 = molecular target: T3, VIM-2 (Escherichia coli, UniProt Q5U7L7); test: biochemical; assay type: biochemical
T3 construct: made in house; host or cells: Escherichia coli
Method: as §1, §9
as described above. The inhibitory activities of these compounds against CphA (B2 […]
as §12, §7, §13

VIM-1 = VIM-1 (Pseudomonas aeruginosa, UniProt A0A0F7KYQ8); test: biochemical; details: n ≥ 3
apo-VIM-2 = apo-VIM-2 (Escherichia coli, UniProt Q5U7L7); assay type: binding; details: 50 μM apo enzyme, 50 μM compound, 50 mM Tris-D11 pH 7.5
Method: (§14) Except where noted, recombinant forms of NDM-1, VIM-2, SPM-1, IMP-1, and BcII MBLs were produced in Escherichia coli and assays were carried out as described […]
(§15) previously10. […]
(§16) Nuclear Magnetic Resonance (NMR) spectra were recorded using a Bruker AVIII 600 MHz NMR spectrometer equipped with a BB-19F/1H Prodigy N2 cryoprobe using 5 mm diameter NMR tubes (Norell). Typical experimental parameters for Carr-Purcell-Meiboom-Gill (CPMG) NMR spectroscopy were: total echo time, 40 ms; […]
(§17) The PROJECT-CPMG sequence
(§18) (90°x−[τ−180°y−τ−90°y−τ−180°y−τ]n−acq) was applied. 15 Water suppression was achieved by pre-saturation. Data were processed with Bruker 3.1 software. Prior to […]
(§19) Fourier transformation, data were multiplied with an exponential function with 0.5 Hz […]
(§20) line broadening. […]

di-Zn(II) VIM-2 = molecular target: T4, di-Zn(II) VIM-2 (Escherichia coli, UniProt Q5U7L7); assay type: binding; details: 50 μM enzyme, 50 μM Zn(II), 50 μM compound, 50 mM Tris-D11 pH 7.5
T4 construct: made in house
Method: as §14, §15, §16, §17, §18, §19, §20

T1 sequence (C7C422 29-270, looked up, species assumed): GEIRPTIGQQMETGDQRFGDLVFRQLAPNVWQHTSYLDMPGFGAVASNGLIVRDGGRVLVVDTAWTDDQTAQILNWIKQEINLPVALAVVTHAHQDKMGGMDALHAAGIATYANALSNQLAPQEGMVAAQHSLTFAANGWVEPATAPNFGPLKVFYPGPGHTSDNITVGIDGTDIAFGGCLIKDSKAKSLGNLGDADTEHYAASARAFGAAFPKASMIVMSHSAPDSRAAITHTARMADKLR

| Compound | IC50 (NDM-1) [µM] | IC50 (SPM-1) [µM] | IC50 (BcII) [µM] | IC50 (CphA) [µM] | IC50 (L1) [µM] | inhibition of class A serine β-lactamase TEM-1 (in words) (TEM-1) | differences between the inhibitory activity with or without excess Zn(II) (VIM-2; 0 μM, 1 μM and 100 μM Zn(II)) | IC50 (VIM-2; FC-5 based assay, n ≥ 3, read-out: IC50 (VIM-2)) [µM] | IC50 (VIM-1) [µM] | binding to apo-VIM-2 by 1H CPMG NMR (apo-VIM-2) | binding to di-Zn(II) VIM-2 by 1H CPMG NMR (di-Zn(II) VIM-2) |
| --- | --- | --- | --- | --- | --- | --- | --- | --- | --- | --- | --- |
| O=C(O)c1cccc2c1C(=O)N(Cc1c(F)cccc1Cl)C2 [Compound 16] | > 400 | > 400 | > 400 | > 400 | > 400 | no inhibition was observed | – | – | – | – | – |
| O=C(O)c1cccc2c1C(=O)N(c1cccc(C(F)(F)F)c1)C2 [Compound 17] | > 400 | > 400 | > 400 | > 400 | > 400 | no inhibition was observed | no obvious differences | 32.8 | > 400 | binding and bind | binding and bind |
